Results as given in patent US7632525B2, “Breath freshening and oral cleansing product with magnolia bark extract in combination with surface active agents” (Wm. Wrigley Jr. Company, priority 2002, dated 2009).

Legend:
Assay type in all cases: cell-based
incubated saliva = assay: MIC of surface active agents and emulsifiers on incubated saliva; settings: for germ-kill efficacy: assessment in words of Table 9; for MIC (ppm): incubated saliva, 24 hours at 37° C.
Description: To evaluate the germ-kill efficacy and synergist effect when two or more germ-kill actives are combined, testing was performed to determine the ratio of MBE to surface active agent. The germ-kill active and/or surface active agent was dissolved in ethanol or sterile water to give an initial concentration 0.1% to 1%. […] These dilutions were inoculated with representative oral microorganisms, or incubated saliva, and incubated for 24 hours at 37° C. For each surface active agent, the lowest dilution that was not turbid was registered as the MIC. The MBC was determined by transferring 10 microliter of liquid from non-turbid tubes to fresh growth media and incubated for 48 hrs.

[1] = tested on: bacteria from freshly-collected stimulated whole saliva (biofilm); assay: Mixed culture saliva biofilm on saliva-coated hydroxyapatite discs (medium pH and OD 600 nm)
Description: A mixed culture system that utilizes the bacteria from freshly-collected stimulated whole saliva was used. Saliva cell pellets were used to inoculate saliva-coated hydroxyapatite (S-HA) discs. The discs were placed in 24-well cell culture plates and incubated for up to 3 days. Biofilms were exposed to actives on days 2 and 3 (starting at 18 hours), and quantified on day 4. The number of bacteria was determined by spectrophotometric absorbance or optical density (OD) at 600 nm. The five phases of the experiment were: pellicle formation; bacterial attachment; biofilm growth; exposure to actives; and bacterial enumeration. To form the pellicles, HA Discs were ultrasonically washed in deionized water and air-dried, then autoclaved. The discs were placed in a 24 well plate with 1 ml 50% sterile saliva (1 part sterile whole saliva: 1 part saliva buffer, filter sterilize after preparation) for 2 hours with slow agitation at room temperature. The saliva was suctioned and then the discs were transferred to fresh wells for bacterial attachment. The discs were inoculated with salivary bacteria by one of two methods: (1) incubation with saliva bacteria suspended in 50% saliva at a standard OD for 2-h at 37° C.; after the attachment phase the discs are transferred to supplemented saliva growth medium, or (2) direct addition of bacteria with media and incubation. To form the biofilms, the bacterial suspension was removed, and the discs were transferred to fresh wells. One ml of supplemented saliva medium was added and the plate was placed in the incubator for overnight incubation and for the duration of the experiment (up to 72 hours). A stock solution of 1% Magnolia Bark Extract in 60% ethanol was prepared. […] One ml quantities of active ingredients and controls were placed into fresh wells, and the discs transferred to these wells for 5 minutes. The chlorhexidine control exposure was one minute, two times a day to mimic the standard mouth-rinse procedure. The exposure to active ingredient was carried out at 8:00 AM, 12:00 and 4:00 PM. After the timed exposure, the solution was removed and the discs washed twice with PBS and then transferred to fresh medium. For some experiments, the medium used during the day was Tryptic Soy Broth (TSB) with a 50 μl 40% sterile sucrose solution added to each well (to give a 2% sucrose solution). The medium was not replaced after the mid-day exposure. After overnight incubation (day 2), discs were exposed to controls and actives. On day 3 the biofilms were again exposed to tests and controls. On day 4 the discs were removed from the medium, the medium pH was measured to obtain an indication of metabolic activity, and the discs were placed into tubes with 2.5 ml PBS, vortexed for 20s, and then placed into the ultrasonic bath for another 20 sec. The suspension was transferred into cuvettes and the bacterial cell density determined by OD measurements at 600 nm. To evaluate the effect of Magnolia Bark Extract in combination with the surface active agent, sodium lauryl sulfate, five active ingredient solutions were prepared using the procedures described above. […] Also, the MBE solutions were prepared to have a concentration of 500 ppm. Sodium lauryl sulfate was added to two of the Magnolia Bark Extract solutions to obtain SLS concentrations of 0.05% and 0.1% in the Magnolia Bark Extract solutions. The testing with Magnolia Bark Extract described above was repeated with the five solutions.

S. mutans = assay: MIC and fractional inhibitory index of MBE/surface active agent combinations on S. mutans; settings: 24 hours at 37° C.
Description: To evaluate the germ-kill efficacy and synergist effect when two or more germ-kill actives are combined, testing was performed to determine the ratio of MBE to surface active agent. […] These dilutions were inoculated with representative oral microorganisms, or incubated saliva, and incubated for 24 hours at 37° C. For each surface active agent, the lowest dilution that was not turbid was registered as the MIC.

Sucrose Distearate
germ-kill efficacy (incubated saliva): weak or non germ-kill actives
MIC (ppm) (incubated saliva): >500 ppm

Sucrose Stearate
germ-kill efficacy (incubated saliva): weak or non germ-kill actives
MIC (ppm) (incubated saliva): >500 ppm

CCCCCCCCCCCCOS(=O)(=O)[O-].[Na+] [SLS, sodium lauryl sulfate]
% OD reduction ([1]; SLS combination experiment, OD 600 nm, 1000 ppm): 61%
pH ([1]; SLS combination experiment, 1000 ppm): 5.7
germ-kill efficacy (incubated saliva): good germ-kill surface active agents

Cocamidopropyl Betaine
germ-kill efficacy (incubated saliva): good germ-kill surface active agents

Sodium Stearoyl Lactylate
germ-kill efficacy (incubated saliva): weak or non germ-kill actives
MIC (ppm) (incubated saliva): >3000 ppm

CCCCCCCCCCCC(=O)OCCOCCOCCOCCOCCOCCOCCOCCOCCOCCOCCOCCOCCOCCOCCOCCOCCOCCOCCOCCOCC(OCCOCCOCCOCCOCCOCCOCCOCCOCCOCCOCCOCCOCCOCCOCCOCCOCCOCCOCCOCCO)C1OCC(OCCOCCOCCOCCOCCOCCOCCOCCOCCOCCOCCOCCOCCOCCOCCOCCOCCOCCOCCOCCO)C1OCCOCCOCCOCCOCCOCCOCCOCCOCCOCCOCCOCCOCCOCCOCCOCCOCCOCCOCCOCCO (stereo not shown) [Tween 20, Polysorbate 20]
germ-kill efficacy (incubated saliva): weak or non germ-kill actives

N=C(NCCCCCCNC(=N)NC(=N)Nc1ccc(Cl)cc1)NC(=N)Nc1ccc(Cl)cc1.O=C(O)[C@H](O)[C@@H](O)[C@H](O)[C@H](O)CO.O=C(O)[C@H](O)[C@@H](O)[C@H](O)[C@H](O)CO [Chlorhexidine gluconate, reference compound]
MIC (ppm) (incubated saliva): 2 ppm
MIC/ppm (S. mutans): 2 ppm

[H]/N=C(\N/C(=N/[H])NCCCCCCNC(=N)NC(=N)Nc1ccc(Cl)cc1)Nc1ccc(Cl)cc1 [CHX, chlorhexidine]
% OD reduction ([1]; OD 600 nm vs PBS control, CHX 0.12%, one minute, two times a day): 84%
% OD reduction ([1]; SLS combination experiment, OD 600 nm, CHX 0.1% (1000 ppm)): 94%
pH ([1]; SLS combination experiment, CHX 0.1% (1000 ppm)): 8.8
pH ([1]; medium pH day 4, CHX 0.12%, exposure one minute, two times a day): 8.8

Sodium Brasslate
germ-kill efficacy (incubated saliva): moderate germ-kill efficacy
MIC (ppm) (incubated saliva): 500 ppm
